We go through five compounds from patent EP0846119B1, “THIENOPYRIMIDINE DERIVATIVES, THEIR PRODUCTION AND USE AS ENDOTHELIN ANTAGONISTS” (Takeda Chemical Industries, Ltd., priority 1995, dated 1997).

Assay [1] concerns the target T1, human endothelin-A (ETA) receptors (Homo sapiens, UniProt P25101).
T1 construct: made in house; host or cells: Sf9 insect cells (membrane fractions)
T1 sequence (P25101 21-427): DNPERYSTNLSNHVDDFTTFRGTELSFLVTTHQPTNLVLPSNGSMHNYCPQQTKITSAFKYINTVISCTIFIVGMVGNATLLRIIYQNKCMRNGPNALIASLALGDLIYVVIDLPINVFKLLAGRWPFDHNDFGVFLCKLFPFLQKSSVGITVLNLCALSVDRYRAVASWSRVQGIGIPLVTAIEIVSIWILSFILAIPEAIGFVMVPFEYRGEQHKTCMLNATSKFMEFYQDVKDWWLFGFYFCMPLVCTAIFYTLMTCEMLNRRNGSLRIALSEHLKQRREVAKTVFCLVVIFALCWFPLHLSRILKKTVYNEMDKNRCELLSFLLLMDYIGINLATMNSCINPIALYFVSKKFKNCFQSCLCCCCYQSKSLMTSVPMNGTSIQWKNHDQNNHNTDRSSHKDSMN
Nature of the assay: Binding Test to ETA receptor expressed in an insect cell Sf9 ([125I]endothelin-1 displacement). Conditions: Sf9 membrane fractions; [125I]endothelin-1; 25°C, 60 minutes; concentration causing PMB=50%; read-out: IC50 value: µM Human endotherin-A receptor. Here is the method:
Binding Test to ETA receptor expressed in an insect cell Sf9:
Endothelin (ET) receptors were prepared by diluting fractions of insect cell (Sf9) membrane having human endothelin-A (ETA) receptors expressed, with an assay buffer {20 mM Tris-HCl, 2 mM EGTA (ethyleneglycol bls(2-aminoethylether) tetra acetic acid), 5 mM magnesium acetate, 0.1% BSA (bovine serum albumin), 0.03% NaN3, 0.5 mM PMSF (phenyl methyl sulfonyl fluoride), 20 µg/ml leupeptin, 4 µg/ml E-64 (products of the Peptide Institute, Japan), 1 µg/ml pepstatin, (pH 7.2)} respectively in a concentration of 1.4 µg/ml in the former case and 0.7 µg/ml in the latte case.
To 100 µl of each portion was added 5 nM[^125I] endothelin-1 (2 µl). A dimethylsulfoxide solution (3 µl) of the test compound was added thereto and incubated at 25°C for 60 minutes.
And, to determine the maximum binding amount (B0) and non-specific binding amount (NSB), lots to which a dimethyl sulfoxide solution (3 µl) or a dimethyl sulfoxide solution (3 µl) containing endothelin-1 (10^-3M) had been added, were also incubated.
These lots were supplemented with 0.05% CHAPS(3-[(3-chloroamidopropyl)dimethylammonio]-1-propanesulfonate)-assay buffer (1.5 ml), subjected to filtration through a glass fiber filter GF/F (trade name; product of Whatman Ltd. (England)), and then washed with the same buffer (1.5 ml)).
(§1) Radioactivity on the filter was counted in a gamma-counter to determine the Percent Maximum Binding (PMB) in accordance with the aforesaid calculation formula. The concentration causing PMB=50% was determined as IC50 value.

In assay [2] the target is T2, human endothelin-B (ETB) receptors (Homo sapiens, UniProt P24530).
T2 construct: made in house; host or cells: Sf9 insect cells (membrane fractions)
T2 sequence (P24530 27-442): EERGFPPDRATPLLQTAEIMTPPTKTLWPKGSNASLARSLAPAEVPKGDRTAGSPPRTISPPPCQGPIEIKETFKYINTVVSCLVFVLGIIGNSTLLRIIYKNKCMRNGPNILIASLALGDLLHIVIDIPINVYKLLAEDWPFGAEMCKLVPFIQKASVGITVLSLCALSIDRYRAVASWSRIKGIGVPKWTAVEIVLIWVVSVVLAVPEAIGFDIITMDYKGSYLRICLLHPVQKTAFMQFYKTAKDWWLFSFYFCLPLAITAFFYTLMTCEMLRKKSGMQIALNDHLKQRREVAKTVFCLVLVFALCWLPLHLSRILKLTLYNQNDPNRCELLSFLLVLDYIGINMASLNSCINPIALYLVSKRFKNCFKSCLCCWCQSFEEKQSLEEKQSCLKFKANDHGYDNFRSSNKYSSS
Nature of the assay: Binding Test to ETB receptor expressed in an insect cell Sf9 ([125I]endothelin-1 displacement). The conditions noted are these: Sf9 membrane fractions; [125I]endothelin-1; 25°C, 60 minutes; concentration causing PMB=50%; read-out: IC50 value: µM Human endotherin-B receptor. Here is the method:
Binding Test to ETB receptor expressed in an insect cell Sf9:
Endothelin (ET) receptors were prepared by diluting fractions of insect cell (Sf9) membrane having human endothelin-B (ETB) receptors expressed, with an assay buffer {200 mM Tris-HCl, 2 mM EGTA (ethylenegiycol bis(2-aminoethylether) tetra acetic acid), 5 mM magnesium acetate, 0.1% BSA (bovine serum albumin), 0.03% NaN3, 0.5 mM PMSF(phenyl methyl sulfonyl fluoride), 20 µg/ml leupeptin, 4 µg/ml E-64 (products of the Peptide Institute), 1 µg/ml pepstatin, (pH 7.2)} respectively in a concentration of 1.4 µg/ml in the former case and 0.7 µg/ml in the latter case.
To 100 µl of each portion was added 5 nM[^125I] endothelin-1 (2 µl). A dimethylsulfoxide solution (3 µl) of the sample was added thereto and incubated at 25°C fpr 60 minutes.
And, to determine the maximum binding amount (B0) and non-specific binding amount (NSB), lots to which a dimethyl sulfoxide solution (3 µl) or a dimethyl sulfoxide solution (3 µl) containing endothelin-1 (10^-5M) had been added, were also incubated.
These lots were supplemented with 0.05% CHAPS(3-[(3-chloroamidopropyl)dimethylammonio]-1-propanesulfonate)-assay buffer (1.5 ml), subjected to filtration through a glass fiber filter GF/F (trade name; product of Whatman Ltd. (England)), and then washed with the same buffer (1.5 ml).
as §1

Usually IC50 stands for the concentration that gives 50% inhibition.

As for `CCCOc1ccc(-c2sc3c(c2CNS(C)(=O)=O)c(=O)n(CC(=O)O)c(=O)n3Cc2ccccc2SC)cc1` [11(7), 2,4(1H,3H)-Dioxo-6-(4-propoxyphenyl)-1-(2-methylthiobenzyl)-5-(methanesulfonamidomethyl)-thieno[2,3-d]pyrimidine-3-acetic acid], the IC50 in assay [1] is 0.018 µM; in assay [2], 0.22 µM.

As to `CCCOc1ccc(-c2sc3c(c2CNS(=O)(=O)CC)c(=O)n(CC(=O)O)c(=O)n3Cc2ccccc2SC)cc1` [11(9), 2,4(1H,3H)-Dioxo-6-(4-propoxyphenyl)-1-(2-methylthiobenzyl)-5-(ethanesulfonamidomethyl)-thieno[2,3-d]pyrimidine-3-acetic acid], the IC50 amounted to 0.015 µM in assay [1] and 0.11 µM in assay [2].

In the case of `COCOc1ccc(-c2sc3c(c2CNS(=O)(=O)C(C)C)c(=O)n(CC(=O)O)c(=O)n3Cc2ccccc2SC)cc1` [11(11), 2,4(1H,3H)-Dioxo-6-(4-methoxymethoxyphenyl)-1-(2-methylthiobenzyl)-5-(isopropanesulfonamidomethyl)thieno[2,3-d]pyrimidine-3-acetic acid], the 50% inhibitory concentration (IC50) in assay [1] was found to be 0.0066 µM; in assay [2] it was 0.09 µM.

For `CCCOc1ccc(-c2sc3c(c2CNS(=O)(=O)C(C)C)c(=O)n(CC(=O)O)c(=O)n3Cc2ccccc2SC)cc1` [11(15), 2,4(1H,3H)-Dioxo-6-(4-propoxyphenyl)-1-(2-methylthiobenzyl)-5-(isopropanesulfonamidomethyl)-thieno[2,3-d]pyrimidine-3-acetic acid], the IC50 in assay [1] came out at 0.011 µM; in assay [2] it was 0.094 µM.

For `CCCS(=O)(=O)NCc1c(-c2ccc(OCOC)cc2)sc2c1c(=O)n(CC(=O)O)c(=O)n2Cc1ccccc1SC` [11(17)], the IC50 in assay [1] worked out at 0.022 µM; in assay [2], 0.047 µM.
